For test [1], the target named is Kappa-type opioid receptor (Cavia porcellus, UniProt P41144). The test is described as follows: Displacement of [3H]-diprenorphine from guinea pig kappa opioid receptor expressed in CHOK1 cell membranes. The conditions noted are these: cho-k1. In general terms: In a radioligand displacement assay an active substance lowers the binding of a labelled ligand.
The target of test [2] is Delta-type opioid receptor (Homo sapiens, UniProt P41143). Put plainly: Displacement of [3H]-diprenorphine from human delta opioid receptor expressed in cell membranes.
Chain of Delta-type opioid receptor (P41143 whole entry): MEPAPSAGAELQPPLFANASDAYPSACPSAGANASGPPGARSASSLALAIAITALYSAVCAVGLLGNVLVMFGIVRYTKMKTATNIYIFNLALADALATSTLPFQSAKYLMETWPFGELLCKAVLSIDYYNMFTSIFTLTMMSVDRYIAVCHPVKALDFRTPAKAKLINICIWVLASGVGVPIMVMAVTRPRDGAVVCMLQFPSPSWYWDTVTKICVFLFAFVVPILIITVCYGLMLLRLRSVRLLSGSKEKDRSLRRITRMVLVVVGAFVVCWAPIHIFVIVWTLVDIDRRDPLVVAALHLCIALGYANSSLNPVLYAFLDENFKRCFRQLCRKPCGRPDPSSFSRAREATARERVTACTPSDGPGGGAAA
The test system of test [3] is Mus musculus. Put plainly: Reversal of morphine-induced delayed gastrointestinal transit in sc dosed mouse compound administered prior to morphine challenge followed by non-nutritive, non-absorbable charcol meal administration by oral gavage at 5 mins post morphine challenge for 60 mins. The class given is functional. The conditions noted are these: read-out: ID50 (the source's name).

The subject of test [4] is Mus musculus. Put plainly: Reversal of morphine-induced delayed gastrointestinal transit in po dosed mouse compound administered prior to morphine challenge followed by non-nutritive, non-absorbable charcol meal administration by oral gavage at 5 mins post morphine challenge for 60 mins. The note with it: read-out: ID50 (the source's name). The class given is functional.

Test [5] has as its target Mu-type opioid receptor (Homo sapiens) (UniProt P35372). The test is described as follows: Intrinsic activity at human mu opioid receptor expressed in CHOK1 cell membranes at 0.00001 to 20 uM after 30 mins by GTP-Eu nucleotide exchange assay relative to DAMGO. It counts as functional. The conditions noted are these: CHO-K1.

For 21 molecules, pKi, ED50 and Intrinsic activity results are on record in ChEMBL document CHEMBL3879907, “8-azabicyclo[3.2.1]octane compounds as mu opioid receptor antagonists” (2014).

Chain of Kappa-type opioid receptor (P41144 whole entry): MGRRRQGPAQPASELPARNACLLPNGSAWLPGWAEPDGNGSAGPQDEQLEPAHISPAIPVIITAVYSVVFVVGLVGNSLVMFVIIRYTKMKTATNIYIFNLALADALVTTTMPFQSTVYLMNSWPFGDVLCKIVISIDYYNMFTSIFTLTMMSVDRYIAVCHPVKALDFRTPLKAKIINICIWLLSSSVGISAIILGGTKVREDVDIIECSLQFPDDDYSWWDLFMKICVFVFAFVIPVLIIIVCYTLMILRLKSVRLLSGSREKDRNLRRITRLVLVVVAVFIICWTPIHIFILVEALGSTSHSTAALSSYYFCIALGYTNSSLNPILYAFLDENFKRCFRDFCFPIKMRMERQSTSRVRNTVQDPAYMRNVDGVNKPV
Chain of Mu-type opioid receptor (Homo sapiens) (P35372 whole entry): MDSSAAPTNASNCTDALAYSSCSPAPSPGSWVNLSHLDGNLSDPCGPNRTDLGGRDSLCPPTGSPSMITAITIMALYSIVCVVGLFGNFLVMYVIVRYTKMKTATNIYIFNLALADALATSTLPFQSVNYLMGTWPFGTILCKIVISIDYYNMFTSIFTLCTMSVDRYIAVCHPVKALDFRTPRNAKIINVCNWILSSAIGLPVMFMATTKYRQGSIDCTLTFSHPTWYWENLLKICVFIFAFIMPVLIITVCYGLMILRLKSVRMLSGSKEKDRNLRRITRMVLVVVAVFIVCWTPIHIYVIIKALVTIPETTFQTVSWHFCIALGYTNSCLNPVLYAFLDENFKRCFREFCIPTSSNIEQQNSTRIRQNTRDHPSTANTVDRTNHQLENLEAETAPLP

Take `NC(=O)c1cccc([C@H]2C[C@H]3CC[C@@H](C2)N3CCN(Cc2ccccc2)C(=O)CO)c1`: the pKi in test [1] and in test [2] was 7 to 10.5 in each case. Also, the ED50 in the test with Mus musculus [3] and in the test on Mus musculus [4] was 0.1 to 3 mg/kg each time.
As for `NC(=O)c1cccc([C@H]2C[C@H]3CC[C@@H](C2)N3CCN(CC2CCCCC2)C(=O)CO)c1`, the ED50 in the test on Mus musculus [3] and in the test with Mus musculus [4] was 0.1 to 3 mg/kg throughout. Besides, the Intrinsic activity in test [5] is under 40%.
For the molecule `NC(=O)c1cccc([C@H]2C[C@H]3CC[C@@H](C2)N3CCN(CC2CCCCC2)C(=O)[C@@H](O)CO)c1` [AXELOPRAN], the ED50 in the test on Mus musculus [3] and with Mus musculus [4] was 0.1 to 3 mg/kg throughout.
Regarding `NC(=O)c1cccc([C@H]2C[C@H]3CC[C@@H](C2)N3CCN(CC2CCCCC2)C(=O)[C@@H](O)CO)c1.O=C(O)C(=O)O`, the pKi in test [1] and in test [2] was 7 to 10.5 throughout. Also, the ED50 in the test with Mus musculus [3] and in the test with Mus musculus [4] was 0.1 to 3 mg/kg throughout.
For the molecule `NC(=O)c1cccc([C@H]2C[C@H]3CC[C@@H](C2)N3CCN(CC2CCC(F)(F)CC2)C(=O)CO)c1`, the negative logarithm of the Ki (pKi) in test [1] and in test [2] was 7 to 10.5 throughout. The ED50 in the test on Mus musculus [3] and in the test on Mus musculus [4] was 0.1 to 3 mg/kg in each case. Besides, in test [5], the Intrinsic activity is under 40%.
Consider `NC(=O)c1cccc([C@H]2C[C@H]3CC[C@@H](C2)N3CCN(CC2CCCCC2)C(=O)[C@@H](O)CO)c1.O=S(=O)(O)O` [AXELOPRAN SULFATE], for which the ED50 in the test with Mus musculus [3] and with Mus musculus [4] was 0.1 to 3 mg/kg throughout.
Turning to `CC(C)CC(=O)N(CCN1[C@@H]2CC[C@H]1C[C@@H](c1cccc(O)c1)C2)Cc1cccc(F)c1`, the pKi in test [1] and in test [2] was 7 to 10.5 throughout. The molecule also had an Intrinsic activity in test [5] of under 40%.
`CC(C)(C(=O)N(CCN1[C@@H]2CC[C@H]1C[C@@H](c1cccc(C(N)=O)c1)C2)CC1CCC1)S(C)(=O)=O.O=C(O)C(F)(F)F`: the pKi in test [1] and in test [2] was 7 to 10.5 in each case. Besides, in test [5], the Intrinsic activity was under 40%.
For `CC(=O)N(CCN1[C@@H]2CC[C@H]1C[C@@H](c1cccc(O)c1)C2)Cc1c(F)cccc1F`, the pKi in test [1] and in test [2] was 7 to 10.5 throughout. Moreover, the Intrinsic activity in test [5] was under 40%.
For `CC(C)C[C@H](O)C(=O)N(CCN1[C@@H]2CC[C@H]1C[C@@H](c1cccc(O)c1)C2)CC1CCCCC1`, the pKi in test [1] and in test [2] was 7 to 10.5 in each case. The same molecule returned an Intrinsic activity in test [5] of under 40%.
Regarding `CC(C)(O)C(=O)N(CCN1[C@@H]2CC[C@H]1C[C@@H](c1cccc(C(N)=O)c1)C2)Cc1c(F)cccc1F.O=C(O)C(F)(F)F`, the pKi in test [1] and in test [2] was 7 to 10.5 in each case. The Intrinsic activity in test [5] is under 40%.
Take `CS(=O)(=O)CC(=O)N(CCN1[C@@H]2CC[C@H]1C[C@@H](c1cccc(C(N)=O)c1)C2)CC1CCCC1.O=C(O)C(F)(F)F`: the negative logarithm of the Ki (pKi) in test [1] and in test [2] was 7 to 10.5 in each case. This molecule also showed an Intrinsic activity in test [5] of under 40%.
For the molecule `O=C(O)CC(=O)N(CCN1[C@@H]2CC[C@H]1C[C@@H](c1cccc(O)c1)C2)Cc1c(F)cccc1F`, the negative logarithm of the Ki (pKi) in test [1] and in test [2] was 7 to 10.5 in each case. Besides, in test [5], the Intrinsic activity is under 40%.
Regarding `CS(=O)(=O)CC(=O)N(CCN1[C@@H]2CC[C@H]1C[C@@H](c1cccc(C(N)=O)c1)C2)Cc1ccc(F)cc1.O=C(O)C(F)(F)F`, the pKi in test [1] and in test [2] was 7 to 10.5 in each case. Further, the Intrinsic activity in test [5] was under 40%.
With `O=C(CO)N(CCN1[C@@H]2CC[C@H]1C[C@@H](c1cccc(O)c1)C2)Cc1ccc(F)cc1`, the pKi in test [1] and in test [2] was 7 to 10.5 in each case. The Intrinsic activity in test [5] is under 40%.
Consider `NC(=O)c1cccc([C@H]2C[C@H]3CC[C@@H](C2)N3CCN(CCc2cccc(F)c2)C(=O)CO)c1.O=C(O)C(F)(F)F`, for which the negative logarithm of the Ki (pKi) in test [1] and in test [2] was 7 to 10.5 each time. Also, in test [5], the Intrinsic activity is under 40%.
Consider `NC(=O)c1cccc([C@H]2C[C@H]3CC[C@@H](C2)N3CCN(Cc2c(F)cccc2F)C(=O)[C@@H](O)CO)c1.O=C(O)C(F)(F)F`, for which the pKi in test [1] and in test [2] was 7 to 10.5 throughout. Further, the Intrinsic activity in test [5] is under 40%.
Consider `NC(=O)c1cccc([C@H]2C[C@H]3CC[C@@H](C2)N3CCN(CCc2ccccc2)C(=O)CO)c1`, for which, in test [2], the negative-log Ki (pKi) (as a rule, the Ki on a negative log10 scale, so that one unit is a factor of ten) is 7 to 10.5. Besides, the ED50 in the test on Mus musculus [3] and in the test on Mus musculus [4] was 0.1 to 3 mg/kg in each case.
In the case of `COC(=O)CCC(=O)N(CCN1[C@@H]2CC[C@H]1C[C@@H](c1cccc(C(N)=O)c1)C2)CC1CCCCC1`, the pKi in test [1] and in test [2] was 7 to 10.5 in each case. This molecule also had an Intrinsic activity in test [5] of under 40%.
On to `C[C@H](O)C(=O)N(CCN1[C@@H]2CC[C@H]1C[C@@H](c1cccc(C(N)=O)c1)C2)Cc1c(F)cccc1F.O=C(O)C(F)(F)F`, for which the pKi in test [1] and in test [2] was 7 to 10.5 in each case. The molecule further gave an Intrinsic activity in test [5] of under 40%.
In the case of `NC(=O)c1cccc([C@H]2C[C@H]3CC[C@@H](C2)N3CCN(CC(F)(F)c2ccccc2)C(=O)[C@@H](O)CO)c1.O=C(O)C(F)(F)F`, the negative-log Ki (pKi) in test [1] and in test [2] was 7 to 10.5 each time. The Intrinsic activity in test [5] is under 40%.
